Patent US7015212B1, “Thiazepine inhibitors of HIV-1 integrase” (The United States of America as represented by the …, priority 1999, dated 2006)
“And” between values parts separate entries of the source, which are not always exact repeats. Equal values may be shown once. Read-outs that look alike come from different tables or passages of the source.

Columns and labels:
[1] = target: T1, purified HIV-1 integrase (HIV-1 IN) (Human immunodeficiency virus type 1 group M subtype B, UniProt P12497); assay: biochemical;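 also: integrase at 200 nM exposed to inhibitor 30 min at 30 °C, then 1 h with 20 nM 5′-32P-labelled 21-mer DNA, 3′-processing or strand transfer products quantified on denaturing gels versus no-drug enzyme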
Protocol: (§3) To analyze the extent of 3′-processing and strand transfer using 5′-end labeled substrates, AE118 was 5′-end labeled using T4 polynucleotide kinase (Gibco BRL) and γ[^32P]-ATP (Dupont-NEN). To determine the extent of 30mer target strand generation during disintegration, AE157 was 5′-end labeled and annealed to AE156, AE146, and AE117. The kinase was heat-inactivated and AE117 was added to the same final concentration. The mixture was heated at 95° C., allowed to cool slowly to room temperature, and run through a G-25 Sephadex quick spin column (Boehringer Mannheim, Indianapolis, Ind.) to separate annealed double-stranded oligonucleotide from unincorporated label.
(§4) To determine the extent of 3′-processing and strand transfer, integrase was preincubated at a final concentration of 200 nM with the inhibitor in a reaction buffer (50 mM NaCl, 1 mM HEPES, pH 7.5, 50 μM EDTA, 50 μM dithiothreitol, 10% glycerol (w/v), 7.5 mM MnCl2, 0.1 mg/ml bovine serum albumin, 10 mM 2-mercaptoethanol, 10% dimethyl sulfoxide, and 25 mM MOPS, pH 7.2) at 30° C. for 30 minutes. Then, 20 nM of the 5′-end ^32P labeled linear oligonucleotide substrate was added, and incubation was continued for an additional one hour. Reactions were quenched by the addition of an equal volume (16 μ) of loading dye (98% deionized formamide, 10 mM EDTA, 0.025% xylene cyanol and 0.025% bromophenol blue). An aliquot (5 μl) was electrophoresed on a denaturing 20% polyacrylamide gel (0.09 M tris-borate pH 8.3, 2 mM EDTA, 20% acrylamide, 8M urea).
(§5) Gels were dried, exposed in a PhosphorImager cassette, and analyzed using a Molecular Dynamics PhosphorImager (Sunnyvale, Calif.). Percent inhibition was calculated using the following equation: % I=100×[1−(D−C)/(N−C)] where C, N, and D are the fractions of 21-mer substrate converted to 19-mer (3′-processing product) or strand transfer products for DNA alone (C), DNA plus integrase (N), and integrase plus drug (D). All IC50 values were determined by plotting the drug concentration versus percent inhibition, and determining the concentration which produced 50% inhibition.

[2] = test system: T4 lymphocytes (CEM cell line); assay: Cytotoxicity in uninfected CEM cells (XTT toxicity control); conditions: read-out: Cell data (μM) CC50: 50% cytotoxic concentration; uninfected CEM cells, 6 days, XTT
Protocol: (§1) The anti-HIV drug testing was performed at NCI based on a protocol described by Weislow et al.^36 All compounds were dissolved in dimethyl sulfoxide and diluted 1:100 in cell culture medium. Exponentially growing T4 lymphocytes (CEM cell line) were added at 5000 cells per well. Frozen virus stock solutions were thawed immediately before use, suspended in complete medium to yield the desired multiplicity of infection (m. o. i.≈0.1), and added to the microtiter wells, resulting in a 1:200 final dilution of the compound. Uninfected cells with the compound served as a toxicity control, and infected and uninfected cells without the compound served as basic controls.
(§2) Cultures were incubated at 37° C. in a 5% CO2 atmosphere for 6 days. The tetrazolium salt, XTT was added to all wells, and cultures were incubated to allow formazan color development by viable cells. Individual wells were analyzed spectrophotometrically to quantitate formazan production, and in addition were viewed microscopically for detection of viable cells and confirmation of protective activity.

[3] = as above; conditions: human, uninfected CEM cells (T4 lymphocytes)
Protocol: as §1, §2

[4] = target: T2, HIV-1 IN (Human immunodeficiency virus type 1 group M subtype B, UniProt P12497); assay: HIV-1 integrase inhibition with Mg+2 as cofactor (gel assay); assay type: biochemical; conditions: compared with Mn+2, 1000, 333, 111, 37 μM
T2 construct: An expression system for the wild-type integrase and the IN^50–212 (F185K) were obtained from the Laboratory of Molecular Biology, NIDDK; made in house
Protocol: FIGS. 2 and 3 show concentration dependent inhibition of HIV-1 IN by thiazolothiazepines 1, 19, and 20 using Mn^+2 (FIG. 2) and Mg^+2 (FIG. 3) as a cofactor. Lane 1, DNA alone, lanes 2 and 15 DNA and integrase, lanes 3–6, 7–10, 11–14 DNA, integrase, and compounds 1, 19, and 20 at 1000, 333, 111, and 37 μM, respectively. See Table 1 for compound identifiers 1, 19, 20.
A 21-mer oligonucleotide corresponding to the last 21 bases on the HIV-1 viral DNA in the U5 region of long terminal repeat (LTR) was radiolabeled with ^32P. This is shown in the FIGS. 2 and 3 as a band corresponding to DNA alone. Integrase will cleave the last two bases of this DNA in the presence of Mn^+2 or Mg^+2 to give a 19-mer DNA substrate (lane 2) which runs faster on the gel and is indicated as 19-mer on the Figures. When an inhibitor is added this process is blocked, therefore the original 21-mer DNA would not be cut. When an inhibitor is added at various concentrations, percent inhibition at every concentration will be calculated by quantification of the intensity of each band using an Imagequant program.
The gels are run using polyacrylamide according to the standard procedures. Upon completion of electrophoresis run, the gels are dried and exposed to a phosphorimager cassette. The cassettes are analyzed by the phosphorimager, and the bands are shown on a computer screen. The intensity of each band is quantitated, plotted against concentrations of drugs, and the IC50 values are calculated from the graphs.

[5] = test system: HIV-1 infected CEM cells; assay: Anti-HIV assay in cultured CEM cells (NCI XTT protocol); assay type: cell-based
Protocol: as §1, §2

[6] = target: T1, purified HIV-1 integrase (HIV-1 IN)
Protocol: as §3, §4, §5

Compound | melting point | IC50 [1] | CC50 [2] | CC50 at 6 days [3] | other results
O=C1Sc2ccc(Cl)cc2C(=O)N2C[S+]([O-])CC12 (racemic) [Compound 17, (±)-cis-7-Chloro-1,11a-dihydro-3H,5H,11H-thiazolo[4,3-c][1,4]benzothiazepine-5,11-dione 2-Oxide] | 213 to 215 °C | 280 µM and 200 µM and 260 µM and 215 µM | – | – | –
COc1ccc2c(c1)C(=O)N1C[S+]([O-])CC1C(=O)S2 (racemic) [Compound 18, (±)-cis-1,11a-Dihydro-7-methoxy-3H,5H,11H-thiazolo[4,3-c][1,4]benzothiazepine-5,11-dione 2-Oxide] | 172 to 174 °C | 142 µM and 84.5 µM | – | – | –
COC1Sc2ccccc2C(=O)N2CCCC12 (stereo not drawn) [Compound 22] | – | – | > 200 µM | – | –
CN1CCN(Cc2ccc3n2Cc2ccccc2SC3c2ccccc2)CC1 (racemic) [Compound 31, (±)-3-[(4-Methylpiperazin-1-yl)methyl]-11-phenyl-5H,11H-pyrrolo [2,1-c][1,4]benzothiazepine] | 161 to 162 °C | – | – | – | –
O=C1Sc2ccc(Cl)cc2C(=O)N2CSCC12 (racemic) [Compound 6, (±)-7-Chloro-1,11a-dihydro-3H,5H,11H-thiazolo[4,3-c][1,4]benzothiazepine-5,11-dione] | 204 to 205 °C | – | > 100 µM | – | –
O=C1Sc2ccccc2C(=O)N2CSCC12 (racemic) [Compound 5] | – | 227 µM and 208 µM | – | > 200 µM | –
O=C1Sc2cc([N+](=O)[O-])ccc2C(=O)N2CSCC12 (racemic) [Compound 9, (±)-1,11a-Dihydro-8-nitro-3H,5H,11H-thiazolo[4,3-c][1,4]benzothiazepine-5,11-dione] | 231 to 232 °C | – | > 50 µM | – | –
O=C1Sc2ccccc2C(=O)N2CCCCC12 (stereo not drawn) [Compound 14] | – | 343 µM and 406 µM and 495 µM | – | > 200 µM | –
O=C1Sc2ccc(Cl)cc2C(=O)N2CCSC12 (racemic) [Compound 2, (±)-7-Chloro-2,3-dihydro-5H-thiazolo[2,3-c][1,4]benzothiazepine-5,11 (11aH)-dione] | – | – | > 50 µM | – | –
CN1CCN([C@@H]2Sc3ccccc3C(=O)N3CCC[C@@H]23)CC1 (racemic) [Compound 27, (±)-cis-2,3,11,11a-Tetrahydro-11-(4-methylpiperazin-1-yl)-1H,5H-pyrrolo[2,1-c][1,4]benzothiazepin-5-one] | – | – | > 125 µM | – | –
CCOC(=O)C1Sc2ccccc2C(=O)n2cccc21 (stereo not drawn) [Compound 29] | – | > 1000 µM | – | – | –
Cc1ccc2c(c1)C(=O)N1CSCC1C(=O)S2 (racemic) [Compound 8, (±)-1,11a-Dihydro-7-methyl-3H,5H,11H-thiazolo[4,3-c][1,4]benzothiazepine-5,11-dione] | – | – | 35 µM | – | –
Cc1ccc2c(c1)C(=O)N1CCSC1C(=O)S2 (racemic) [Compound 4, (±)-2,3-Dihydro-7-methyl-5H-thiazolo[2,3-c][1,4]benzothiazepine-5,11 (11aH)-dione] | – | 55 µM and 64 µM | – | – | –
O=C1c2ccccc2SC(O)C2CCCN12 (stereo not drawn) [Compound 25] | – | – | – | > 200 µM | –
O=C1Sc2ccccc2C(=O)N2CCSC12 (stereo not drawn) [Compound 1] | – | 110 µM and 146 µM | – | > 200 µM | activity against IN in the presence of Mg+2 [4]: active in the presence of Mg^+2 within the same concentration range as in Mn^+2; therapeutic index (TI=CC50/EC50) [5]: > 1.8
O=C1Sc2ccc(Br)cc2C(=O)N2CCSC12 (racemic) [Compound 3, (±)-7-Bromo-2,3-dihydro-5H-thiazolo[2,3-c][1,4]benzothiazepine-5,11 (11aH)-dione] | 219 to 220 °C | – | – | – | –
COc1cc2c(cc1OC)C(=O)N1CCCC1CS2 (stereo not drawn) [Compound 24] | – | – | – | > 200 µM | –
CN(C)Cc1ccc2n1C(=O)c1ccccc1SC2c1ccc(F)cc1 (stereo not drawn) [Compound 30] | – | > 1000 µM | – | – | –
O=C1Sc2cc3ccccc3cc2C(=O)N2CCSC12 (racemic) [Compound 19, (±)-2,3-Dihydro-5H-naphto[2,3-f]thiazolo[2,3-c][1,4]thiazepine-5,13(13aH)-dione] | – | 47 ± 6 µM | – | > 316 µM | activity against IN in the presence of Mg+2 [4]: active in the presence of Mg^+2 within the same concentration range as in Mn^+2; therapeutic index (TI=CC50/EC50) [5]: > 5
COc1ccc2c(c1)C(=O)N1CSCC1C(=O)S2 (racemic) [Compound 10, (±)-1,11a-dihydro-7-methoxy-3H,5H, 11H-thiazolo[4,3-c][1,4]benzothiazepine-5,11-dione] | – | – | > 200 µM | – | –
O=C1Sc2cc3ccccc3cc2C(=O)N2CSCC12 (racemic) [Compound 20, (±)-1,13a-Dihydro-3H,5H,11H-naphto[2,3-f]thiazolo[4,3-c][1,4]thiazepine-5,13-dione] | – | 92 µM and 100 µM | – | > 316 µM | activity against IN in the presence of Mg+2 [4]: active in the presence of Mg^+2 within the same concentration range as in Mn^+2
COc1cc2c(cc1OC)C(=O)N1CSCC1C(=O)S2 (stereo not drawn) [Compound 11] | – | 330 µM and 670 µM and 630 µM | – | > 50 µM | –
COc1cc2c(cc1OC)C(=O)N1CCCC1C(=O)S2 (stereo not drawn) [Compound 13] | – | – | – | > 200 µM | –
O=C1Sc2ccc(Br)cc2C(=O)N2CSCC12 (racemic) [Compound 7, (±)-7-Bromo-1,11a-dihydro-3H,5H,11H-thiazolo[4,3-c][1,4]benzothiazepine-5,11-dione] | 213 to 214 °C | – | > 200 µM | – | –
O=C1Sc2ccccc2C(=O)N2C[S+]([O-])CC12 (racemic) [Compound 16, (±)-cis-1,11a-Dihydro-3H,5H,11H-thiazolo[4,3-c][1,4]benzothiazepine-5,11-dione 2-oxide] | – | 215 µM and 222 µM and 200 µM and 185 µM | – | – | –
O=C1c2ccccc2SC(O)(c2ccccc2)C2CCCN12 (racemic) [Compound 26, (±)-2,3,11,11a-Tetrahydro-11-hydroxy-11-phenyl-1H,5H-pyrrolo [2,1-c][1,4]benzothiazepin-5-one] | 137 to 141 °C | – | – | – | –
CC(=O)OC1Sc2ccccc2C(=O)N2CCCC12 (stereo not drawn) [Compound 21] | – | – | – | > 200 µM | –
Cc1ccc2c(c1)C(=O)N1CC[S+]([O-])C1C(=O)S2 (racemic) [Compound 15, (±)-cis-2,3-Dihydro-7-methyl-5H-thiazolo[2,3-c][1,4]benzothiazepine-5,11 (11aH)-dione 1-Oxide] | 211 to 212 °C | 590 ± 350 µM | – | > 100 µM | –
O=C1Sc2ccccc2Cn2cccc21 [Compound 28] | – | – | > 200 µM | – | IC50 [6]: 590 µM and 300 µM
